For test [1], the system named is Human umbilical vein endothelial cells (HUVECs), normal quiescent type endothelial cells. The experiment in a line: Proliferation assay, quiescent endothelium (Norm). The settings on record: HUVEC, given as ranges. The test is classed as cell-based. As for the experimental part: (§1) Proliferation Assay—quiescent endothelium: Human umbilical vein endothelial cells (CC-2519, Clonetics) were plated at 15000 cells/well in EBM2 (CC-3156, Clonetics)+0.5% FBS (CC-4101A, Clonetics)+GA-1000 (CC-4381A, Clonetics) in a 96 well plate in triplicate. Cells were cultured overnight at 37° C. 5% CO2. Medium was subsequently replaced with fresh medium including the compound or negative control. Cells were cultured for a period of 48 hrs. An MTT assay was performed to measure changes in cell numbers. Briefly, 20 μl of MTT reagent was added to cells containing 100 μl of EBM2+0.5% FBS and incubated at 37° C. for 2 hours. Absorbance was measured at 492 nm.

The test system of test [2] is Human umbilical vein endothelial cells (HUVECs), tumour type activated endothelial cells. Briefly: Proliferation assay, activated endothelium (Tum). The settings on record: HUVEC, given as ranges. The test is classed as cell-based. The procedure: (§2) Proliferation Assay—activated endothelium: Human umbilical vein endothelial cells (CC-2519, Clonetics) were plated at 2500 cells/well in EGM2 (CC-3162, Clonetics) in a 96 well plate in triplicate. Cells were cultured overnight at 37° C. 5% CO2. Medium was subsequently replaced with fresh medium including the compound or negative control. Cells were cultured for a period of 48 hrs. An MTT assay was performed to measure changes in cell numbers. Briefly, 20 μl of MTT reagent was added to cells containing 100 μl of EGM2 and incubated at 37° C. for 2 hours. Absorbance was measured at 492 nm.

Another test relates to MDA-MB-231. The experiment in a line: Growth inhibition (SRB or cell counting), MDA-MB-231. The format is cell-based. The conditions noted are these: Homo sapiens; MDA-MB-231 (footnote b); given as ranges; read-out: Cancer cell line: IC50.
The next test relates to MCF-7. Briefly: Growth inhibition (SRB or cell counting), MCF-7. The settings on record: Homo sapiens, MCF7, concentration required to inhibit net cell growth by 50%, read-out: Cancer cell line: IC50. The format is cell-based.
Test [3] deals with tumor endothelial cells (activated) and normal endothelial cells (quiescent). The experiment in a line: Selectivity between activated and quiescent endothelial cells. The format is cell-based. The procedure:
as §1, §2

Another test has as its system Caki-1 xenograft tumors. Briefly: Immunohistochemistry analysis of Caki-1 renal xenografts. The format is in vivo, BALB/c nu/nu mice. The conditions noted are these: single i.v. 32 mg/kg. The source says: These effects result in some reduction of tumor growth in animal models. Tumor recovery from the vascular damage caused by VDA action occurs within 48 hrs post-treatment. Furthermore, vascular disruption spares the outer cellular rim of a tumor mass that appears to be supported by normal vessels that surround the tumor capsule and remain unaffected by VDA action. It is reasonable to hypothesise that his viable rim subsequently supports tumor revascularisation and recovery from the action of the VDA agent. We hypothesised that the recovery of the tumors from the effects of the VDA action is driven by molecular pathways that support cancer cell survival and induction of angiogenesis. We undertook a number of histological analyses to assess the damage caused by Example 2 on the integrity of components of the tumor microenvironment and obtain information of upregulation of proteins that are likely to be involved in tumor recovery. Our analyses included evaluation of the expression of VEGF, phosphorylated mTOR, Hypoxia inducible factor-1-alpha (Hif-1α), and Hypoxia inducible factor-2-alpha (Hif-2α), the level of apoptosis, integrity of endothelial cells and the basement membrane protein laminin.
Female BALB/c nu/nu mice at 6 to 8 weeks were injected s.c. with the human cancer cell line Caki-1 representing renal cancer. Cells were resuspended in Dulbecco's PBS (Sigma-Aldrich) and 5×10^6 cells were injected s.c. Tumors were grown to an average size of 700 mm^3 prior to treatment. Example 2 treatment consisted of a single i.v. injection at dose level of 32 mg/kg. Saline treatment was included as a vehicle control. Animals were euthanized and tumors were excised for histologic examination 24 hours post dosing. Cryosections of tumors were prepared and probed with phosphorylated mTOR (ser 2448), Hif-1α, Hif-2α and CD31 specific antibodies. Antibody staining was visualized using 3,3′-Diaminobenzidine (brown staining) and sections were conterstained with Myers hematoxylin.

Test [4] relates to MDA-MB-231 solid orthotopic tumors. The experiment in a line: Tumor growth inhibition, MDA-MB-231 orthotopic tumors. The conditions noted are these: 40 mg/kg i.v., two cycles, up to 72 days; vs vehicle p<0.001 from day 4 to Day 70. The test is classed as in vivo, Balb/c nu/nu mice. The source says: Animals were i.v. dosed with a total of two cycles of Example 2 treatment. Each cycle was dosing on […] followed by a three week no-dosing period. Tumor growth represented as a ratio to initial tumor volume is shown over a total of 72-days.
Tumor growth as well as animal health were monitored for up to 72 days post-day 1 of treatment. […] Significant differences in tumor growth between Example 2 treated (n=64) and vehicle treated (n=20) animals were observed as early as day 4 (p<0.001; unpaired t-test; Prism® analysis) through to Day 70.

The mark [5] stands for this setting: around the viable rim region, 24 hours.

Consider 16 compounds from patent US9006284B2, “Combination therapy for treating proliferative diseases” (Bionomics Limited, priority 2009, dated 2015).

What is called IC50 is the point on the concentration scale where inhibition reaches its midpoint. In the case of `COc1ccc2c(C(=O)c3cc(OC)c(OC)c(OC)c3)c(C)sc2c1` [Example 41], the half-inhibitory concentration (IC50) in test [1] and in test [2] was 1 to 10 nM throughout.

For `COc1cc(C(=O)c2c(CN(C)C)oc3c(O)c(OC)ccc23)cc(OC)c1OC` [Example 34], the IC50 in test [1] and in test [2] was 1 to 10 nM in each case.

For the compound `COc1cc(C(=O)c2coc3c(N)c(OC)ccc23)cc(OC)c1OC` [Example 19], the IC50 (in the test on MDA-MB-231; in test [1]; in test [2]) was 1 to 10 nM throughout.

With `COc1cc(C(=O)c2c(NCCS(N)(=O)=O)oc3c(O)c(OC)ccc23)cc(OC)c1OC` [Example 45], the IC50 in test [1] and in test [2] was 1 to 10 nM throughout.

In the case of `COc1ccc(/C=C\c2cc(OC)c(OC)c(OC)c2)cc1OP(=O)(O)O` [Example 4], the figures for the IC50 (in the test with MCF-7; in test [1]; in test [2]) were 5 nM, 1 to 10 nM and 1 to 10 nM, respectively.

For the compound `COc1cc(C(=O)c2c(N)oc3c(O)c(OC)ccc23)cc(OC)c1OC` [Example 25], the IC50 in the test on MDA-MB-231 lay within 0.1 to 1 nM; in test [1] it was 1 to 10 nM; in test [2], 1 to 10 nM.

For `COc1cc(C(=O)c2c(C)sc3c(O)c(OC)ccc23)cc(OC)c1OC` [Example 42], the values for the IC50 in test [1] and in test [2] were 1 to 10 nM and 0.1 to 1 nM, respectively.

For the compound `CCCCc1oc2c(O)c(OC)ccc2c1C(=O)c1cc(OC)c(OC)c(OC)c1` [Example 32], the IC50 in test [1] and in test [2] was 1 to 10 nM each time.

With `COc1cc(C(=O)c2c(C#N)oc3c(O)c(OC)ccc23)cc(OC)c1OC` [Example 23], the figures for the IC50 (in the test on MDA-MB-231; in test [1]; in test [2]) were 0.1 to 1 nM, 1 to 10 nM and 1 to 10 nM, respectively.

Turning to `CCc1oc2c(O)c(OC)ccc2c1C(=O)c1cc(OC)c(OC)c(OC)c1` [Example 33], the IC50 in test [1] and in test [2] was 0.1 to 1 nM throughout.

Turning to `COc1ccc(/C=C\c2cc(OC)c(OC)c(OC)c2)cc1O` [Combretastatin A4], in test [3], the “Selectivity activated vs quiescent endothelial cells” value is “equally potent against quiescent and activated endothelial cells”.

Take `COc1cc(C(=O)c2c(C)oc3c(OP(=O)([O-])[O-])c(OC)ccc23)cc(OC)c1OC.[Na+].[Na+]` [Example 2, Disodium 6-methoxy-2-methyl-3-(3,4,5-trimethoxybenzoyl)benzofuran-7-yl phosphate]: in the test with Caki-1 xenograft tumors (24-30 hrs after treatment), the “Number of apoptotic cells within the tumor” value is on record as “significant increase in the number of apoptotic cells”, the “Staining of laminin (basement membrane integrity)” value is reported as “considerable reduction in the staining”, the “Staining with anti-human VEGF antibody” value is reported as “dramatic increase in staining” and the “Staining with endothelial cell marker CD31” value is “decrease in staining”. In the test with Caki-1 xenograft tumors (setting [5]), the “Expression of Hif-1α” value is given as “Increased expression”, the “Expression of Hif-2α” value is given as “Increased expression” and the “Expression of phosphorylated mTOR (ser 2448)” value is listed as “Increased expression”. In addition, the “Tumor growth (ratio to initial tumor volume)” value in test [4] is recorded as “tumor growth inhibition”.

For `COc1ccc2c(C(=O)c3cc(OC)c(OC)c(OC)c3)coc2c1` [Example 5], the IC50 in the test on MCF-7 was 55 nM; in test [1], 10 to 100 nM; in test [2] it was 10 to 100 nM.

`CNc1oc2c(O)c(OC)ccc2c1C(=O)c1cc(OC)c(OC)c(OC)c1` [Example 10]: the IC50 with MCF-7 is 3.5 nM; in test [1], 0.1 to 1 nM; in test [2], 1 to 10 nM.

For `C#Cc1oc2c(O)c(OC)ccc2c1C(=O)c1cc(OC)c(OC)c(OC)c1` [Example 12], the IC50 is 3.3 nM in the test with MCF-7, 1 to 10 nM in test [1] and 1 to 10 nM in test [2].

For `COc1cc(C(=O)c2c(C)[nH]c3c(O)c(OC)ccc23)cc(OC)c1OC` [Example 39], the IC50 in test [1] was 0.1 to 1 nM; in test [2] it was 0.01 to 0.1 nM.
